Measured values published in patent publication US8080529B2, “Macrolides with anti-inflammatory activity” (Glaxo Group Limited, priority 2005, dated 2011).
Read-outs that look alike come from different tables or passages of the source.

Tests used:
[1] = test system: neutrophils; test: Lung neutrophilia induced by bacterial lipopolysaccharide in male BALB/cJ mice: cells in BALF and lung tissue; assay type: in vivo; conditions: 5 mg i.p.; 24 hours after LPS
Procedure: (§1) Male BALB/cJ mice (Iffa Credo, France), with average weight 30 g were randomly grouped (n=7 in testing group, 8 in positive control, 7 in negative control). Mice were administered intraperitoneally (i.p.) a single dose of 5 or 2.5 mg of test compound. Two hours after administration, 2 μg of bacterial lipopolysaccharide (LPS), dissolved in PBS in a volume of 60 μL, was intranasally administered to all experimental groups except the negative control group, which received the same volume (60 μL) of vehicle PBS. Animals were sacrificed approximately 24 hours after application of LPS in order to obtain bronchoalveolar lavage fluid (BALF), which was used to determine concentrations of IL-6 and TNF-α, absolute number of cells, and the percentage of neutrophils in BALF. Results are expressed as percentage of decrease of total cell number, relative number of neutrophils, and TNF-α, and IL-6 concentration in BALF of treated animals compared to positive control (LPS stimulated, but untreated animals).
(§2) Results are expressed as percentage of decrease of total cell number, relative number of neutrophils, and TNF-alpha and IL-6 concentration in BALF of treated animals compared to positive control (LPS stimulated, but untreated animals).
Besides accumulation of inflammatory cells in BALF, the extent and anatomic site of pulmonary inflammation induced by LPS was assessed 24 hours after PBS or LPS exposure. Accumulation of granulocytes and mononuclear cells in peribronchial (PB) and perivascular (PV) lung tissue areas and in alveolar spaces was monitored following sacrifice of the animals.

[2] = test system: IL-6; test: Lung neutrophilia induced by bacterial lipopolysaccharide in male BALB/cJ mice: IL-6 in BALF; assay type: in vivo; conditions: 5 mg i.p.; 24 hours after LPS
Procedure: as §1, §2

[3] = test system: TNF-α; test: Lung neutrophilia induced by bacterial lipopolysaccharide in male BALB/cJ mice: TNF-α in BALF; assay type: in vivo; conditions: 5 mg i.p.; 24 hours after LPS
Procedure: as §1, §2

[4] = test system: granulocytes; assay type: in vitro ADME; conditions: human, 180 min, 10 μM
Procedure: (§3) Granulocytes were obtained from heparinized whole blood using density gradiant centrifugation. Erythrocytes were sedimented on 3% dextran T-500 (Amersham Pharmacia Biotech AB, Uppsala, Sweden). Leukocytes were centrifuged on Ficoll (Amersham Pharmacia Biotech AB, Uppsala, Sweden) for 35 min at 600 g at 20° C. The pellet of granulocytes was cleared from remaining erythrocytes by a brief hypotonic lysis.
7.5×10^6 granulocytes, isolated as described above, were suspended in 3 mL of RPMI 1640 (Institute of Immunology, Croatia) containing 10 μM of tested macrolide. Samples were incubated at 37° C. for 180 min. Following incubation, the samples were centrifuged through the layer of Poly(dimethylsiloxane-co-diphenylsiloxane), dihydroxy terminated-silicone oil (Aldrich Chemical Company, Milwaukee, USA). The pellet was resuspended in 0.5% Triton X-100 (Sigma, St. Louis, USA) in deionized water (MilliQ, Millipore Corporation, Bedford, USA). The suspension was sonicated, proteins were precipitated with acetonitrile, and the concentration of macrolide in the supernatants was determined by liquid chromatography-mass spectrometry (LC-MS).
Intracellular concentrations of the test compounds were calculated from the mean cell number recovered after centrifuging through silicone oil. According to the literature, about 1 million neutrophils is considered to have a volume of 0.24 μL (Vazifeh et al., Antimicrob Agents Chemo. 1997; 41: 2099-2107). To estimate the extent of macrolide accumulation, the intracellular to extracellular concentration ratio (I/E) was calculated, where E (due to a large volume of incubation medium) was taken as constant (10 μM). Results are expressed relative to azithromycin according to the following equation: % of azithromycin uptake =(I/E of a substance/I/E of azithromycin)×100. I/E values obtained for azithromycin were 164±10.

[5] = test system: granulocytes; test: Inhibition of degranulation of granulocytes (free neutrophil elastase activity); assay type: cell-based, human; conditions: for inhibition at 50 µM / inhibition at 10 µM: Homo sapiens, Neutrophil, read-out: Percentage of inhibition of degranulation of granulocytes
Procedure: as §3
1×10^6 granulocytes, isolated as described above, were resuspended in RPMI-1640 medium (Institute of Immunology, Croatia), and were incubated with 10 or 50 μM of test compound together with cytochalasine B (5 μg/mL) for 2 h at 37° C. Degranulation then was induced by the addition of 0.1 μM fMLP (Sigma, USA) or 0.5 μM A23187 (Calbiochem, USA). The activity of free neutrophil elastase was determined with a chromogenic substrate specific for human neutrophil elastase, such as N-(methoxysuccinyl)-L-alanyl-L-alanyl-L-prolyl-L-valine 4-nitroanilide (Sigma Chemical Company, St Louis, Mo., USA). Elastase activity, as a marker of primary granules, was assessed in supernatant using a spectrophotometer at an absorbance of 405 nm.
Results are expressed as the percent of inhibition of degranulation in unstimulated cells, and in stimulated cells treated with fMLP or A23187.

[6] = test system: IL-2; test: Inhibition of IL-2 production by PHA-stimulated human PBMC in vitro; assay type: cell-based; conditions: 3 days; for inhibition at 10 µM / inhibition at 50 µM: Homo sapiens, 72 h, read-out: Percentage of inhibition of IL-2 production
Procedure: (§4) Heparinized peripheral blood was obtained from healthy donors, and peripheral blood mononuclear cells (PBMC) were isolated by Histopaque 1077 (Sigma, USA) density centrifugation at 400×g for 30 minutes. Collected PBMC were centrifuged in plasma at 400×g for 10 min, resuspended and washed in RPMI 1640 (Institute of Immunology, Croatia) by centrifugation.
(§5) Peripheral blood mononuclear cells (PBMC), isolated as described above, were seeded in a 48-well plate at a concentration of 1×10^6 cells per well in the RPMI culture medium described above. Cells were stimulated with 10 μg/mL phytohaemagglutinin (PHA) (Sigma, USA) and incubated at 37° C., 5% CO2 in 90% humidity with tested compounds (10 and 50 μM) for 3 days. Cytokine concentrations were determined in supernatants by sandwich ELISA, using capture and detection antibodies (R&D, USA) according to the manufacturer's recommendations.
(§6) Inhibition (as percentage) was calculated using the following formula: % inhibition=(1−concentration of cytokines in sample/concentration of cytokines in positive control)×100.
(§7) The positive control refers to LPS-, PMA- or zymosan-stimulated samples that were not treated with test compounds.

[7] = test system: IL-5; test: Inhibition of IL-5 production by PHA-stimulated human PBMC in vitro; assay type: cell-based; conditions: 3 days; for inhibition at 10 µM / inhibition at 50 µM: Homo sapiens, 72 h, read-out: Percentage of inhibition of IL-5 production
Procedure: as §4, §5, §6, §7

SMILES: CC[C@H]1OC(=O)[C@H](C)[C@@H](O[C@H]2C[C@@](C)(OC)[C@@H](OC(=O)CCN(CC)CC)[C@H](C)O2)[C@H](C)[C@@H](O[C@@H]2O[C@H](C)C[C@H](NC)[C@H]2O)[C@](C)(OC)C[C@@H](C)C(=O)N[C@H](C)[C@@H](O)[C@]1(C)O [Example 54, 3′-N-Demethyl-4″-O-(3-diethylaminopropionyl)-6-O-methyl-9a-aza-9a-homoerythromycin A]
- % decrease of neutrophils in BALF [1]: 70%
- % decrease of total cell no. in BALF [1]: 90%
- Percentage of decrease of IL-6 concentration in BALF [2]: 100%
- Percentage of decrease of TNF-α concentration in BALF [3]: 100%

SMILES: CC[C@H]1OC(=O)[C@H](C)[C@@H](O[C@H]2C[C@@](C)(OC)[C@@H](OC(=O)CCN(C)C)[C@H](C)O2)[C@H](C)[C@@H](O[C@@H]2O[C@H](C)C[C@H](N(C)C)[C@H]2O)[C@](C)(OC)C[C@@H](C)C(=O)N[C@H](C)[C@@H](O)[C@]1(C)O [Example 12, 4″-O-(3-dimethylamino-propionyl)-6-O-methyl-9a-aza-9a-homoerythromycin A]
- % decrease of neutrophils in BALF [1]: 46%
- % decrease of total cell no. in BALF [1]: 88%
- Percentage of decrease of IL-6 concentration in BALF [2]: 45%
- Percentage of decrease of TNF-α concentration in BALF [3]: 87%

SMILES: CC[C@H]1OC(=O)[C@H](C)[C@@H](O[C@H]2C[C@@](C)(OC)[C@@H](OC(=O)CCN(CC)CC)[C@H](C)O2)[C@H](C)[C@@H](O[C@@H]2O[C@H](C)C[C@H](N(C)C)[C@H]2O)[C@](C)(O)C[C@@H](C)CN(C)[C@H](C)[C@@H](O)[C@]1(C)O [Example 48, 4″-O-(3-diethylamino-propionyl)-azithromycin]
- % decrease of neutrophils in BALF [1]: 66%
- % decrease of total cell no. in BALF [1]: 79%
- Percentage of decrease of IL-6 concentration in BALF [2]: 9%
- Percentage of decrease of TNF-α concentration in BALF [3]: 85%
- Uptake (% azithromycin) [4]: 125 % azithromycin

SMILES: CCC1OC(=O)C(C)C(OC2CC(C)(OC)C(OC(=O)CCN(CC)CC)C(C)O2)C(C)C(OC2OC(C)CC(N(C)C)C2O)C(C)(OC)CC(C)C(=O)NC(C)C(O)C1(C)O (stereo not shown) [Example 8, 4″-O-(3-Diethylamino-propionyl)-6-O-methyl-9a-aza-9a-homoerythromycin A]
- % decrease of neutrophils in BALF [1]: 52%
- % decrease of total cell no. in BALF [1]: 84%
- Percentage of decrease of IL-6 concentration in BALF [2]: 67%
- Percentage of inhibition of degranulation of granulocytes ([5]; A23187 0.5 μM, compound 10 μM): 10%
- Percentage of inhibition of degranulation of granulocytes ([5]; A23187 0.5 μM, compound 50 μM): 24%
- Percentage of inhibition of degranulation of granulocytes ([5]; fMLP 0.1 μM, compound 10 μM): 52%
- Percentage of inhibition of degranulation of granulocytes ([5]; fMLP 0.1 μM, compound 50 μM): 72%
- Percentage of inhibition of IL-2 production ([6]; 10 μM): 100%
- Percentage of inhibition of IL-2 production ([6]; 50 μM): 100%
- Percentage of inhibition of IL-5 production ([7]; 10 μM): 34%
- Percentage of inhibition of IL-5 production ([7]; 50 μM): 85%
- Percentage of decrease of TNF-α concentration in BALF [3]: 69%

SMILES: CC[C@H]1OC(=O)[C@H](C)[C@@H](O[C@H]2C[C@@](C)(OC)[C@@H](O)[C@H](C)O2)[C@H](C)[C@@H](O[C@@H]2O[C@H](C)C[C@H](N(C)C)[C@H]2O)[C@](C)(O)C[C@@H](C)CN(C)[C@H](C)[C@@H](O)[C@]1(C)O [azithromycin, reference compound]
- % decrease of neutrophils in BALF [1]: 37%
- % decrease of total cell no. in BALF [1]: 77%
- Percentage of decrease of IL-6 concentration in BALF [2]: 72%
- inhibition at 50 µM ([5]; A23187 0.5 μM, compound 50 μM): 15%
- inhibition at 50 µM ([5]; fMLP 0.1 μM, compound 50 μM): 36%
- Percentage of decrease of TNF-α concentration in BALF [3]: 66%
- Uptake (% azithromycin) [4]: 100 % azithromycin
- intracellular to extracellular concentration ratio (I/E) [4]: 164±10

SMILES: CC[C@H]1OC(=O)[C@H](C)[C@@H](O[C@H]2C[C@@](C)(OC)[C@@H](O)[C@H](C)O2)[C@H](C)[C@@H](O[C@@H]2O[C@H](C)C[C@H](N(C)C)[C@H]2O)[C@](C)(OC)C[C@@H](C)C(=O)[C@H](C)[C@@H](O)[C@]1(C)O [clarithromycin, reference compound]
- % decrease of neutrophils in BALF [1]: 36%
- % decrease of total cell no. in BALF [1]: 77%
- Percentage of decrease of IL-6 concentration in BALF [2]: 60%
- inhibition at 10 µM ([6]; 10 μM): 0%
- inhibition at 50 µM ([6]; 50 μM): 3%
- inhibition at 10 µM ([7]; 10 μM): 13%
- inhibition at 50 µM ([7]; 50 μM): 47%
- Percentage of decrease of TNF-α concentration in BALF [3]: 78%

SMILES: CC[C@H]1OC(=O)[C@H](C)[C@@H](O[C@H]2C[C@@](C)(OC)[C@@H](OC(=O)CCN(CC)CC)[C@H](C)O2)[C@H](C)[C@@H](O[C@@H]2O[C@H](C)C[C@H](N(C)C)[C@H]2O)[C@](C)(OC)C[C@@H](C)NC(=O)[C@H](C)[C@@H](O)[C@]1(C)O [Example 3, 4″-O-(3-Diethylamino-Propionyl)-6-O-methyl-8a-aza-8a-homoerythromycin A]
- Uptake (% azithromycin) [4]: 15 % azithromycin

SMILES: CC[C@H]1OC(=O)[C@H](C)C(O[C@H]2C[C@@](C)(OC)[C@@H](OC(=O)CCN(CC)CC)[C@H](C)O2)[C@H](C)[C@@H](O[C@@H]2O[C@H](C)C[C@H](N(C)C)[C@H]2O)[C@](C)(OC)C[C@@H](C)C(=O)[C@H](C)[C@H](O)[C@]1(C)O (stereo partly shown) [Example 49, 4″-O-(3-Diethylamino-propionyl)-6-O-methylerithromycin A]
- inhibition at 10 µM ([5]; A23187 0.5 μM, compound 10 μM): 10%
- inhibition at 50 µM ([5]; A23187 0.5 μM, compound 50 μM): 51%
- inhibition at 10 µM ([5]; fMLP 0.1 μM, compound 10 μM): 47%
- inhibition at 50 µM ([5]; fMLP 0.1 μM, compound 50 μM): 72%
- inhibition at 10 µM ([6]; 10 μM): 51%
- inhibition at 50 µM ([6]; 50 μM): 100%
- inhibition at 10 µM ([7]; 10 μM): 59%
- inhibition at 50 µM ([7]; 50 μM): 81%
- Uptake (% azithromycin) [4]: >600 % azithromycin

SMILES: CC[C@H]1OC(=O)[C@H](C)[C@@H](O[C@H]2C[C@@](C)(OC)[C@@H](OC(=O)CCN(CC)CC)[C@H](C)O2)[C@H](C)[C@@H](O[C@@H]2O[C@H](C)C[C@H](N(C)C)[C@H]2O)[C@](C)(OC)C[C@@H](C)C(=O)[C@H](C)[C@H]2NC(=O)O[C@@]21C [Example 9, 11,12-Carbamate-11,12-dideoxy-4″-O-(3-diethylamino-propionyl)-6-O-methyl-erythromycin A]
- Uptake (% azithromycin) [4]: 412 % azithromycin
